Source: US20250051332A1 (priority 2022, published 2025)
Like-named read-outs stand apart in the source and are kept apart here.

Columns and labels:
μOR = target: T1, μOR (Homo sapiens, UniProt P35372); assay: cell-based; format: cell-based; conditions: for Emax: read-out: μOR cAMP inhibition Emax ± SEM (%)
T1 construct: host or cells: CHO-K1

κOR [1] = target: T2, κOR (Homo sapiens, UniProt P41145); assay: cell-based; format: cell-based; conditions: for Emax: read-out: κOR cAMP inhibition Emax ± SEM (%)
T2 construct: host or cells: CHO-K1

HERG = HERG (Homo sapiens, UniProt Q12809); conditions: data from reference 40; cited from earlier work
320 non-olfactory GPCRs = assay: PRESTO-Tango GPCRome screen of βArr2 recruitment; format: cell-based; conditions: 3 μM, FIG. 7
κOR [2] = target: T2, κOR; assay: PathHunter β-arrestin-2 recruitment assay at the κOR; format: cell-based; conditions: FIG. 6
Excerpt: Cell Lines and Cell Culture. To perform the HitHunter cAMP accumulation assay, Chinese hamster ovary cells (CHO-K1) stably expressing human μ-opioid receptor (OPRM1, catalog no. 95-0107C2, DiscoverX, Fremont, CA, USA), K-opioid receptor (OPRK1, catalog no. 95-0088C2, DiscoverX, Fremont, CA, USA), or 6-opioid receptor (OPRD1, catalog no. 95-0108C2, DiscoverX, Fremont, CA, USA) were maintained at 80% confluence in F-12 media supplemented with 10% fetal bovine serum, 1% penicillin/streptomycin/L-glutamine, and 800 μg/mL G418. To perform the PathHunter β-arrestin-2 recruitment assay, U2OS-human κ opioid receptor (κOR) cells stably expressing the κOR and β-arrestin-2 (RRID:CVCL_LA97, DiscoverX, Fremont, CA, USA) were maintained in McCoy's 5A media supplemented with 10% FBS and containing 500 μg/mL geneticin and 250 μg/mL hygromycin. All cells were grown 37° C. under 5% CO2 in a humidified incubator under sterile conditions in T75 flasks. During passaging, cells were dislodged from the flask following a 3-5 min incubation with 0.25% trypsin or non-enzymatic detachment reagent and subcultivated at ratios of 1:10 (CHO) and 3:10 (U2OS).
PathHunter β-arrestin-2 Recruitment Assay. The R-arrestin-2 recruitment assay was performed using U2OS-human (κOR) PathHunter R-arrestin-2 cells (DiscoverX) as previously described.^77

[3] = read-out: μOR cAMP inhibition EC50
[4] = read-out: κOR cAMP inhibition EC50

T2 sequence (P41145 whole entry): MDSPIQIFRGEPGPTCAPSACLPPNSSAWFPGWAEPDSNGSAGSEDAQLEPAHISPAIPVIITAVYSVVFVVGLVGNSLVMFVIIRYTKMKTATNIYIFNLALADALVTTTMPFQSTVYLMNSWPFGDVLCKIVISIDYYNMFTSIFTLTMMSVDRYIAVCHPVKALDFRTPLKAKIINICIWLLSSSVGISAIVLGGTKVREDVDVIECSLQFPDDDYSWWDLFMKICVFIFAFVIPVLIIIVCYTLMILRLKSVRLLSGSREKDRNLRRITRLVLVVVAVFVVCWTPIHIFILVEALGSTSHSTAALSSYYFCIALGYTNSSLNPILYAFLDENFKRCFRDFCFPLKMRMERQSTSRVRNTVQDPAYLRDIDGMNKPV
T1 sequence (P35372 whole entry): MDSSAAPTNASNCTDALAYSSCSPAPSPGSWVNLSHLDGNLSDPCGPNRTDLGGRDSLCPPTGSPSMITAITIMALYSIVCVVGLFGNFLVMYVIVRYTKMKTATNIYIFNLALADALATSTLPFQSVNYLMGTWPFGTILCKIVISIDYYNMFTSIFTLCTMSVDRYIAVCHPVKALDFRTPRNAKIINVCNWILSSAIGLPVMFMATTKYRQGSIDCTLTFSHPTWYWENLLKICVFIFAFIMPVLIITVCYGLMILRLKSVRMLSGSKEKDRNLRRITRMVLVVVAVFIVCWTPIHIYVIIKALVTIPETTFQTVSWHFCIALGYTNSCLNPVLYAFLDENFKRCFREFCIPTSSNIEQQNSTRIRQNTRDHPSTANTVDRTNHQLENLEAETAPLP
Chain of HERG (Q12809 whole entry): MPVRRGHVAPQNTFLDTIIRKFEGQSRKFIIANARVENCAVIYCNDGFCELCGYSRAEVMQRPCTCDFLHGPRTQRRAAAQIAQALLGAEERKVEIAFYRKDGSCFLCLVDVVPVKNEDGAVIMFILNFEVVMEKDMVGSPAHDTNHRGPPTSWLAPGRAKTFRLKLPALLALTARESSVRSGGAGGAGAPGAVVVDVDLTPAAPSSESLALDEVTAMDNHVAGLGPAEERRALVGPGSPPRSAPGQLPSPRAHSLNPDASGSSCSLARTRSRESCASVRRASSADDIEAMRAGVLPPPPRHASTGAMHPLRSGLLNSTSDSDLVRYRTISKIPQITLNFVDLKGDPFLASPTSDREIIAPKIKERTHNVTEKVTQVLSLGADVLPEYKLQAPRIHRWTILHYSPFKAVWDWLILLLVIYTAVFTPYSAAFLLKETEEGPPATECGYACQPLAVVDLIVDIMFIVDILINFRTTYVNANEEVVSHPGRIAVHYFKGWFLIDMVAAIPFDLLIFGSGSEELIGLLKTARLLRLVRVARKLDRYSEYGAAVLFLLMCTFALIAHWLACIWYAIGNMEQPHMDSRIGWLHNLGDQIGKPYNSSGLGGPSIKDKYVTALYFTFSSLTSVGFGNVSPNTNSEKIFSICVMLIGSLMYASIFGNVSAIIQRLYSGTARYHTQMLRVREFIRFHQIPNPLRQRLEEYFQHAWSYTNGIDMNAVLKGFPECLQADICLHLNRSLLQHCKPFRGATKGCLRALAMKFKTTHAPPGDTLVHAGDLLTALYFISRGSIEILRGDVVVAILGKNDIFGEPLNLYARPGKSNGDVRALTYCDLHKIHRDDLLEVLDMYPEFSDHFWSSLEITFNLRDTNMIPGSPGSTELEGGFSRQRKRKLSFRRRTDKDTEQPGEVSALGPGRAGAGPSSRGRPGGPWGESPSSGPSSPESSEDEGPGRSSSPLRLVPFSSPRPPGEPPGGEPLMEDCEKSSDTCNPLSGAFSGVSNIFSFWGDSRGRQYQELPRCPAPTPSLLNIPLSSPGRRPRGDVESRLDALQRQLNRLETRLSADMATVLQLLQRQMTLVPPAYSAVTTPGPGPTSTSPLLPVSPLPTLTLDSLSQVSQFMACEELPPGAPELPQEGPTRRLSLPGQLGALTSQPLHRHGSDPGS

Compound | μOR cAMP inhibition pEC50 ± SEM (μOR) | EC50 (μOR; [3]) [µM] | Emax (μOR) [%] | Emax (κOR [1]) [%] | EC50 (μOR) [µM] | EC50 (κOR [1]) [µM] | κOR cAMP inhibition pEC50 ± SEM (κOR [1]) | EC50 (κOR [1]; [4]) [µM] | also measured
C/C=C1/C[N+]2(Cc3ccccc3)CC[C@]34C(=C(C(=O)OC)[C@H]1C[C@@H]32)Nc1ccccc14 (stereo partly drawn) [Compound 20, N-4-Benzylakuammicine] | 5.6 ± 0.1 | 2.3 | 112 ± 6 | < 10 |  |  |  |  | 
CC=C1CN2CCC34C(=C(C(=O)OC)C1CC23)Nc1ccc(C#N)cc14 (stereo not drawn) [Compound 7, 10-Cyanoakuammicine] |  | > 10 | < 10 | 102 ± 6 | > 10 | 0.081 |  |  | agonist activity at the μOR (μOR): without activating the μOR
C/C=C1/CN2CC[C@]34C(=C(C(=O)OC)[C@H]1C[C@H]23)Nc1ccccc14 [Compound 1, Akuammicine, reference compound] |  |  |  | 91 ± 7 |  |  |  |  | Ki (nM) at HERG (HERG): — (“—” indicates compound produced less than 50% displacement of radioligand in primary binding screen at 10 μM.)
CC=C1CN2CCC34c5cc(I)ccc5NC3C(C(=O)OC)C1CC24 (stereo not drawn) [Compound 22, 10-Iodo-2,16-dihydroakuammicine] |  | > 10 |  |  | > 10 | 0.024 |  |  | 
19-Hydroxyalstolucine [Compound 12] | — (key: — = no activity observed at 10 μM.) | > 10 |  |  |  |  | — (key: — = no activity observed at 10 μM.) | > 10 | agonist activity at the μOR (μOR): no agonist activity; μOR cAMP inhibition Emax ± SEM (%) (μOR): <10%; agonist activity at the κOR (κOR [1]): no agonist activity; κOR cAMP inhibition Emax ± SEM (%) (κOR [1]): <10%
C=CC[N+]12CCC34C(=C(C(=O)OC)C(CC31)C(=CC)C2)Nc1ccccc14 (stereo not drawn) [Compound 17, N-4-Allylakuammicine] |  | > 10 | < 10 | < 10 | > 10 | > 10 |  | > 10 | 
COC(=O)C1=C2Nc3ccccc3[C@@]23CCN2C[C@@](O)([C@@H](C)O)[C@@H]1C[C@H]23 [Compound 10, 19R,20R-Dihydroxyakuammicine] |  |  |  |  |  |  |  |  | agonist activity at the μOR (μOR): no agonist activity; agonist activity at the κOR (κOR [1]): no agonist activity
C=CC[N+]12CCC34C(=C(C(=O)OC)C(CC31)C(=CC)C2)Nc1ccc(Br)cc14 (stereo not drawn) [Compound 24, 10-Bromo-N-4-allylakuammicine] |  | > 10 | < 10 | 100 ± 7 | > 10 | 0.65 |  |  | 
CC=C1CN2CCC34C(=C(C(=O)OC)C1CC23)Nc1ccc([N+](=O)[O-])cc14 (stereo not drawn) [Compound 8, 10-Nitroakuammicine] |  |  | < 10 | 96 ± 5 | 4 | 0.16 |  |  | βArr recruitment against GPCRome (320 non-olfactory GPCRs): induced recruitment of a number of non-opioid targets; Selectivity index = μOR EC50/κOR EC50 (κOR [1]): 25
C/C=C1/C[N+]2(CCC)CC[C@]34C(=C(C(=O)OC)[C@H]1C[C@@H]32)Nc1ccccc14 (stereo partly drawn) [Compound 18, N-4-Propylakuammicine] |  |  | < 10 | < 10 |  |  |  |  | 
C/C=C1/CN2CC[C@]34C(=C(C(=O)OC)[C@H]1C[C@H]23)Nc1ccc(-c2ccsc2)cc14 [Compound 6, 10-(3-Thienyl)akuammicine] | 6.1 ± 0.1 | 0.84 | 107 ± 3 | 104 ± 3 | 0.72 to 0.84 |  | 8.1 ± 0.1 | 0.0077 | 
C/C=C1/CN2CC[C@]34c5cc(Br)ccc5NC3C(C(=O)OC)[C@H]1C[C@H]24 (stereo partly drawn) [Compound 21, 10-Bromo-2,16-dihydroakuammicine] |  |  |  | 100 ± 4 |  |  | 7.3 ± 0.1 | 0.047 | 
CC=C1C[N+]2(C)CCC34C(=C(C(=O)OC)C1CC32)Nc1ccc(Br)cc14 (stereo not drawn) [Compound 23, 10-Bromo-N-4-methylakuammicine] |  | > 10 | < 10 | 102 ± 7 | > 10 | 0.94 |  |  | 
CCC1CN2CCC34C(=C(C(=O)OC)C1CC23)Nc1ccc(Br)cc14 (stereo not drawn) [Compound 27, 10-Bromo-19,20-dihydroakuammicine] | 6.0 ± 0.1 | 1.1 | 107 ± 5 | 100 ± 5 |  |  | 7.5 ± 0.1 | 0.031 | Selectivity index = μOR EC50/κOR EC50 (κOR [1]): 35
C/C=C1/C[N+]2(CC3CC3)CC[C@]34C(=C(C(=O)OC)[C@H]1C[C@@H]32)Nc1ccc(Br)cc14 (stereo partly drawn) [Compound 25, 10-Bromo-N-4-cyclopropylmethylakuammicine] |  |  | < 10 | 94 ± 5 |  |  | 6.7 ± 0.1 | 0.21 | 
C/C=C1/C[N+]2(C)CC[C@]34C(=C(C(=O)OC)[C@H]1C[C@@H]32)Nc1ccccc14 (stereo partly drawn) [Compound 16, N-4-Methylakuammicine] |  |  | < 10 | < 10 |  |  |  |  | 
CC[C@@H]1CN2CC[C@]34C(=C(C(=O)OC)[C@H]1C[C@H]23)Nc1ccccc14 [Compound 13, 19,20-dihydroakuammicine] | — (key: — = no activity observed at 10 μM.) | > 10 |  |  |  |  | 5.8 ± 0.1 | 1.6 | μOR cAMP inhibition Emax ± SEM (%) (μOR): <10%; κOR cAMP inhibition Emax ± SEM (%) (κOR [1]): 99 ± 9%
C/C=C1/CN2CC[C@]34c5ccccc5NC3C(C(=O)OC)[C@H]1C[C@H]24 (stereo partly drawn) [Compound 14, 2,16-dihydroakuammicine] |  | > 10 | < 10 | < 10 | > 10 | > 10 |  | > 10 | agonist activity at the κOR (κOR [1]): all κOR agonist activity is abolished or significantly diminished
CCC1CN2CCC34c5ccccc5NC3C(C(=O)OC)C1CC24 (stereo not drawn) [Compound 15, 2,16,19,20-tetrahydroakuammicine] |  | > 10 | < 10 | < 10 | > 10 | > 10 |  | > 10 | agonist activity at the κOR (κOR [1]): all κOR agonist activity is abolished or significantly diminished
CC=C1C[N+]2(CC3CC3)CCC34C(=C(C(=O)OC)C1CC32)Nc1ccccc14 (stereo not drawn) [Compound 19, N-4-Cyclopropylmethylakuammicine] |  | > 10 | < 10 | 113 ± 24 | > 10 | 4.7 |  |  | fold reduced κOR potency compared to 1 (κOR [1]): about 4 fold
C/C=C1/CN2CC[C@]34C(=C(C(=O)OC)[C@H]1C[C@H]23)Nc1ccc(-c2ccccc2)cc14 [Compound 4, 10-Phenylakuammicine] | 6.1 ± 0.1 | 0.78 | 106 ± 6 | 101 ± 2 | 0.72 to 0.84 |  | 7.8 ± 0.1 | 0.015 | 
C/C=C1/CN2CC[C@]34C(=C(C(=O)OC)[C@H]1C[C@H]23)Nc1ccc(-c2ccoc2)cc14 [Compound 5, 10-(3-Furanyl)akuammicine] | 6.1 ± 0.2 | 0.72 | 99 ± 12 | 102 ± 2 | 0.72 to 0.84 |  | 9.1 ± 0.1 | 0.00088 | βArr2 recruitment compared with U50,488 (κOR [2]): significantly less recruitment of βArr2 than U50488 at concentrations <10 μM; fold increase in κOR potency relative to 1 (κOR [1]): > 1,300
